# Measured values published in PMC8151276, “An Integrated Approach toward NanoBRET Tracers for Analysis of GPCR Ligand Engagement” (Molecules, 2021).
# Tests used:
# NPBWR2 = biological target: T1, NPBWR2 (Homo sapiens, UniProt P48146); assay: NanoBRET screen HiBiT-NPBWR2 in HEK293; format: binding; settings: NPBWR2
# T1 construct: purchased Promega (in-house HiBiT-GPCR construct library, NanoBRET)
# Protocol: (§1) Each tracer candidate was screened across the entire library of HiBiT-GPCR constructs using NanoBRET as the detection modality. As depicted in Figure 4A, the specificity of interactions was evaluated through decrease in BRET due to competitive displacement of a bound tracer by excess parental compound. Each tracer was analyzed for binding to each HiBiT-GPCR fusion in the absence and in the presence of competing parental compound. Briefly, HEK293 cells were transfected with HiBiT-GPCR constructs diluted into promoterless DNA to reduce expression and maximize translocation to the cell surface. Each tracer candidate was then screened at concentrations of 1 μM and 0.1 μM across cells expressing these fusions. Cells were treated for 1.5 h with tracer either alone or in the presence of 20 μM competing parental compound (i.e., control). BRET was measured upon addition of purified LgBiT and subsequent complementation with HiBiT genetically fused to a GPCR. The specificity of interactions was assessed through a decrease in BRET signal due to competitive displacement of the bound tracer. To further gauge the robustness of these interactions, the fold response over the control (i.e., BRETtracer/BRETcontrol) was calculated. We chose a 1.5-fold response, which translates to ≥7-fold signal over noise as the minimal threshold required to score an interaction as positive. […]. Below we highlight the screening results obtained for our exemplary fluorescent tracers based on Clozapine, Amitriptyline and AZD1283.
# (§2) HiBiT-GPCR DNA constructs were diluted in 10 mM Tris pH 8 to a final concentration of 0.01 μg/μL, arrayed in 96-well plates and stored at −20 °C. For transfection, HEK293 cells were suspended in Opti-MEM (without phenol red) supplemented with 2% fetal bovine serum (Seradigm) and 100 units/mL penicillin–streptomycin (Gibco) at a final concentration of 220,000 cells/mL and dispensed into white 96-well plates at 90 μL/well. Subsequent transfections and screens were carried using an Agilent Bravo Automated Liquid Handling Platform. First, the 96-well HiBiT DNA arrays were diluted 25-fold in Opti-MEM (without serum or phenol red) to a final concentration of 0.0004 μg/μL and 20 μL of the diluted DNAs were transferred into new 96-well plates. Next, promoterless carrier DNA (1 μg/μL) was diluted 25-fold (0.04 μg/μL) and then dispensed into the diluted arrays at 20 μL/well. Following brief mixing, Viafect transfection reagent (Promega) diluted 16-fold into Opti-MEM was dispensed into the plates at 40 μL/well. After mixing by pipetting, plates were incubated for 10 min on the pipetting station deck. The DNA-transfection reagent complexes were then added to plates containing cells. To facilitate the screen, 10 μL of DNA-transfection reagent complexes were added in duplicates to the top 4 and bottom 4 rows, resulting in two identical 48-well arrays per plate. Plates with transfected cells were incubated for 18–20 h at 37 °C/5% CO2. A screen of each tracer across the entire library using two different concentrations requires duplicate plates of transfected cells. Depending on the number of tracers being screened, transfections can be scaled up using the same ratios. The next day, for each tracer, four 20× screening solutions in tracer dilution buffer (Promega) were prepared: two duplicates at final concentration of 20 μM and two duplicates at a final concentration of 2 μM. A competing unmodified compound was added to one of each duplicate at a final concentration of 400 μM. The four resulting solutions were diluted 4-fold in Opti-MEM without serum or phenol red to generate 5× solutions (5 µM and 0.5 µM tracer +/− 100 μM competing compound). To screen the library, a BioTek MultiFlo FX liquid dispenser was used to dispense 22.5 µL of tracer solution to the top 4 rows and 22.5 µL tracer + competing compound solution to the 4 bottom rows. Plates were briefly mixed on an orbital shaker and incubated for 1.5 h at room temperature. […]
# F2R = biological target: T2, F2R (Homo sapiens, UniProt P25116); assay: NanoBRET screen HiBiT-F2R in HEK293; format: binding; settings: F2R
# T2 construct: purchased Promega (in-house HiBiT-GPCR construct library, NanoBRET)
# T2 sequence (P25116 22-425): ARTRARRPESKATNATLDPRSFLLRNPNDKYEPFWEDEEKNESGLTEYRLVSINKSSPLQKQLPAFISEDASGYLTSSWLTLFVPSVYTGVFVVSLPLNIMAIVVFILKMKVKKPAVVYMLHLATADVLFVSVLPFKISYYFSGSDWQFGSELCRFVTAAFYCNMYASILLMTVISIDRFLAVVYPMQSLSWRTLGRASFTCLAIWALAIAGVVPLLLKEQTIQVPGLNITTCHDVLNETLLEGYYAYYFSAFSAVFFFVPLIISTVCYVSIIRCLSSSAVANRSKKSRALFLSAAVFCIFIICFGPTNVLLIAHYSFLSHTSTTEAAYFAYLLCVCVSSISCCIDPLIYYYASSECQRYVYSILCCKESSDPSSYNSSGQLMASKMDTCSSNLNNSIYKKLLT
# Protocol: as §1, §2
# T1 sequence (P48146 whole entry): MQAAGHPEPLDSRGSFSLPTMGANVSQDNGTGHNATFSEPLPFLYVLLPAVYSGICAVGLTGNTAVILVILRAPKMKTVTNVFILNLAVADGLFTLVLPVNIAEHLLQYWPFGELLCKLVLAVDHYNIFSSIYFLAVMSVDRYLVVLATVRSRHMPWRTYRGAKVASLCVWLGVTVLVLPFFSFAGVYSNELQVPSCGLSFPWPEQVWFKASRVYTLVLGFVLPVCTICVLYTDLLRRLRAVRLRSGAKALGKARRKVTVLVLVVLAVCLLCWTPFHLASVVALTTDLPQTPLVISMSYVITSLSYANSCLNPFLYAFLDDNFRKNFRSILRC
compound,measurement,setting,value
CCCn1c(=O)c2[nH]c(-c3ccc(OCC(=O)NCCNC(=O)CCOCCNC(=O)c4ccc(CNC(=O)CCc5ccc6n5[B-](F)(F)[N+]5=C(c7ccc[nH]7)C=CC5=C6)cc4)cc3)nc2n(CCC)c1=O [XAC-3-NB590],NanoBRET Fold Response,NPBWR2; tracer 0.1μM,1.01
same,NanoBRET Fold Response,NPBWR2; tracer 1μM,0.99
same,NanoBRET Fold Response,F2R; tracer 0.1μM,1.20
same,NanoBRET Fold Response,F2R; tracer 1μM,0.80
